≈ marks a conversion by molar mass, not a printed value. Read-outs that look alike come from different tables or passages of the source.

Test [1] has as its target E. coli MurC (Escherichia coli, UniProt P17952). Kind of test: Malachite green inhibition assay, MurC. It counts as biochemical. The settings on record: for remaining activity at 100 µM: 0.25 h; for IC50 / MurC RA [%]: Table 1; for IC50: read-out: MurC IC50; for MurC RA [%]: residual activity at 100 µM compound.
Test [2] deals with E. coli MurD (Escherichia coli, UniProt P14900). Kind of test: biochemical. The settings on record: for remaining activity at 100 µM: 0.25 h, Table S1, PKIS screening, read-out: RA [%] at 100 µM MurD; for IC50 / MurD RA [%]: Table 1; for IC50: read-out: MurD IC50; for LE (MurD): ligand efficiency, LE = (1.37 × pIC50)/HAC; for MurD RA [%]: residual activity at 100 µM compound. The gist of the method: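 Orthophosphate released by E. coli MurD quantified by malachite green (Biomol green) absorbance at 650 nm after 15 min at 37 °C. Residual activity relative to DMSO-only controls.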

Test [3] has as its target E. coli MurE (Escherichia coli, UniProt P22188). Briefly: Malachite green inhibition assay, MurE. The class given is biochemical. The settings on record: for IC50 / MurE RA [%]: Table 1; for IC50: read-out: MurE IC50; for MurE RA [%]: residual activity at 100 µM compound. As for the experimental part: Inhibition of the Mur ligases was determined using the malachite green assay, with slight modifications.
MurE: 50 mM Hepes, pH 8.0, 15 mM MgCl2, 0.005% Triton X-114, 60 µM meso-diaminopimelic acid, 100 µM uridine-5′-diphosphate-N-acetylmuramoyl-L-alanine-D-glutamate, 1000 µM ATP, and purified E. coli MurE[27].
In all cases, the final concentration of DMSO was 5% (v/v). After incubation for 15 min at 37 °C, the enzyme reaction was terminated by addition of 100 µM Biomol green reagent, and the absorbance was measured at 650 nm after 5 min. All of the experiments were run in duplicate. Residual activities were calculated with respect to control assays without the tested compounds, but with the 5% DMSO carrier.
The published kinase inhibitor set compounds were evaluated for inhibition of MurC, D and F ligases from E. coli using the Malachite green assay, which detects orthophosphate generated during enzymatic reactions. To avoid non-specific inhibition due to aggregate formation, all of the compounds were tested in the presence of detergent (0.005% Triton-X114). The data are presented as the residual activities of these Mur ligases in the presence of 100 µM of each test compound (Supporting Information Table S1). […]. The IC50 values against MurC, D, E and F were determined for the selected hit compounds – one representative compound from each structural class was chosen: compound 1[33], aza-stilbene derivative; compound 2[34], alkynyl pyrimidine; compound 3[35], pyrazolo [1,5]-b]pyridazine; compound 4[36], phenoxypyrimidine; compound 5[37], 4,6-bis-anilino-1H-pyrrolo[2,3-pyrimidine (Table 1). […]. […] Among the hits, compounds for further mechanistic studies were chosen on the basis of their ligand efficiency. Ligand efficiency quantifies the molecular properties, particularly size and lipophilicity and is used as a selection criterion for structurally different compounds as more ‘efficient’ ligands have the potential to control for the inflation of these properties[38] Thus ligand efficiencies were calculated for the four hits (Supporting Information Table S2)[39]^,[40], and compound 1 was selected as the most promising for additional studies. Additionally, regarding the data of profiled compounds in large panels of human kinase assays[41] […] To provide sufficient amounts of compound 1 for kinetic and NMR studies, it was resynthesized according to the synthetic procedures (Figure 2) described in the literature.

The target of test [4] is E. coli MurF (Escherichia coli, UniProt P11880). Briefly: biochemical. As to conditions: for remaining activity at 100 µM: 0.25 h, Table S1, PKIS screening, read-out: RA [%] at 100 µM MurF; for IC50 / MurF RA [%]: Table 1; for LE (MurF): ligand efficiency, LE = (1.37 × pIC50)/HAC; for MurF RA [%]: residual activity at 100 µM compound.
The test system of test [5] is human kinases. As to conditions: over 200 kinase activity assays and 68 DSF assays; cited from earlier work. (Differential scanning fluorimetry follows unfolding on heating by fluorescence.)
Test [6] relates to E. coli (ATCC 25922). Briefly: Antimicrobial testing, broth microdilution. It counts as cell-based. As to conditions: Escherichia coli, ATCC25922; positive control; 20 h, 37 °C. As for the experimental part:
(§1) Antimicrobial testing was performed by the broth microdilution method in 96-well plates following the Clinical and Laboratory Standards Institute guidelines[29] and European Committee on Antimicrobial Susceptibility Testing recommendations. Bacterial suspensions equivalent to 0.5 McFarland turbidity standard were diluted with cation-adjusted Mueller–Hinton broth with TES buffering (ThermoFisher Scientific), for a final inoculum of 10^5 CFU/mL. The compounds dissolved in DMSO and the inoculum were mixed together and incubated for 20 h at 37 °C. […] The MICs were determined against Staphylococcus aureus (ATCC 29213) and E. coli (ATCC 25922) bacterial strains. Tetracycline was used as the positive control on every assay plate, with MICs of 0.5 and 1 µg/mL for S. aureus and E. coli, respectively.

The test system of test [7] is Staphylococcus aureus (ATCC 29213). Briefly: Antimicrobial testing, broth microdilution. As to conditions: ATCC29213, positive control, 20 h, 37 °C. The class given is cell-based. As for the experimental part:
as §1
(Broth dilution looks for growth in wells or tubes with falling amounts of substance.)

[8] abbreviates: Table S1, PKIS screening, read-out: RA [%] at 100 µM MurC.
Where [9] appears, read: read-out: RA [%] at 100 µM MurC, Table S1, PKIS screening.

E. coli MurF, sequence (P11880 whole entry): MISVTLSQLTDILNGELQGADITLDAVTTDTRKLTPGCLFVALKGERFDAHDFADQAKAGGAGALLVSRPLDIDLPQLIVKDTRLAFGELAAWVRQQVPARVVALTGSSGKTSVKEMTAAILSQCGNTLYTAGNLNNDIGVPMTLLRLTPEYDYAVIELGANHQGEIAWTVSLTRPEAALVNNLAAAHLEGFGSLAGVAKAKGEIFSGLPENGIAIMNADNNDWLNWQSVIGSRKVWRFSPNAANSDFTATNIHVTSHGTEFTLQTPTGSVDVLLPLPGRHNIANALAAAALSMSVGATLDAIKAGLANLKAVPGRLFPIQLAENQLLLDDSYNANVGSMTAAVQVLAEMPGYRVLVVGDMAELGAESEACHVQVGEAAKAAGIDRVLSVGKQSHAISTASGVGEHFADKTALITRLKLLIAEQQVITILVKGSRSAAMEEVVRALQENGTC
E. coli MurE, sequence (P22188 whole entry): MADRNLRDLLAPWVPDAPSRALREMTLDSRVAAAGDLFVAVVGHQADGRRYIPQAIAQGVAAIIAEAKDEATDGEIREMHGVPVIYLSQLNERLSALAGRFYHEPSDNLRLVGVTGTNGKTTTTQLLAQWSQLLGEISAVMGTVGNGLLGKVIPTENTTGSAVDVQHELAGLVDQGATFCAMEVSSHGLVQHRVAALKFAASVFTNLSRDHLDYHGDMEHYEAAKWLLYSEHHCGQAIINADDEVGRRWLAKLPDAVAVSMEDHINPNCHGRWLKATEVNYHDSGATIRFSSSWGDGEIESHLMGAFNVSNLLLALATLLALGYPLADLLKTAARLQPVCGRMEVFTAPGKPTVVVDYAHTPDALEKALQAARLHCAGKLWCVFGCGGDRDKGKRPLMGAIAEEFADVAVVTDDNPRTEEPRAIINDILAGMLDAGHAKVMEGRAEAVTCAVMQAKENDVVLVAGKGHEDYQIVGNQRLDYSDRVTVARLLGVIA
E. coli MurD, sequence (P14900 whole entry): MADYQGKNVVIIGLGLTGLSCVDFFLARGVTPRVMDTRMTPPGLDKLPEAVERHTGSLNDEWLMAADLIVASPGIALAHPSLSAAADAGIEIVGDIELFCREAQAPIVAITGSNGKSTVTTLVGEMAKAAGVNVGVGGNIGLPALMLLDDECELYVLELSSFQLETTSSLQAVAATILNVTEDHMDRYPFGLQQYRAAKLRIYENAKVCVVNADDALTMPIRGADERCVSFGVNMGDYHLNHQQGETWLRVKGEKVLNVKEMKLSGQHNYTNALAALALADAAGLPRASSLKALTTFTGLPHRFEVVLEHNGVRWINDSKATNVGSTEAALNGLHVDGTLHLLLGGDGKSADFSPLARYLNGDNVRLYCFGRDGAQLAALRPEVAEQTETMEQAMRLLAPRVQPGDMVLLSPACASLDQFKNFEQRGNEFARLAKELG
E. coli MurC, sequence (P17952 whole entry): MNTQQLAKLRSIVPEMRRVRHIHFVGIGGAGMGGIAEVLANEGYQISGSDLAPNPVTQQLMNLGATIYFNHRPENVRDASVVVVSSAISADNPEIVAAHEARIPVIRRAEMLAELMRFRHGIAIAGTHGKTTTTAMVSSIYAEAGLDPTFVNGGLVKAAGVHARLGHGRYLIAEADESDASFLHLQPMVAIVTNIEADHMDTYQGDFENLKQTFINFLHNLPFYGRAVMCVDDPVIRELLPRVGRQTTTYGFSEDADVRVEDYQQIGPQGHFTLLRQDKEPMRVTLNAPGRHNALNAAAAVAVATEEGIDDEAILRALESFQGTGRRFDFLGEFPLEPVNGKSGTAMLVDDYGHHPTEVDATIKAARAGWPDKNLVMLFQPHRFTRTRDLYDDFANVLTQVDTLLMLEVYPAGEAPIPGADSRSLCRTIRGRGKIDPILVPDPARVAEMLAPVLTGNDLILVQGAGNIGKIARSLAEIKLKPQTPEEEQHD

What is called IC50 is the midpoint of a concentration-inhibition curve. Consider `Nc1ccc(C#Cc2cncnc2Nc2ccc(OCc3cccc(F)c3)c(Cl)c2)cc1` [Compound 2], for which, in test [1] (setting [8]), the remaining activity at 100 µM amounted to 43%. Besides, in test [1], the IC50 came to 62 µM and the “MurC RA [%]” value was found to be 43%. In test [2], the remaining activity at 100 µM is 51%, the IC50 amounted to 104 µM, the “LE (MurD)” value is listed as 0.17 and the “MurD RA [%]” value is 51%. In addition, in test [3], the half-maximal inhibitory concentration (IC50) was 157 µM and the “MurE RA [%]” value is reported as 50%. Further, in test [4], the remaining activity at 100 µM worked out at 30%; the midpoint of inhibition, the IC50, lay at 39 µM; the “LE (MurF)” value is reported as 0.19; the “MurF RA [%]” value came out at 30%. For the same molecule, the “activity at human kinases” value in test [5] is recorded as “no appreciable activity”.

With `COc1ccc(-c2nn3ncccc3c2-c2ccnc(Nc3cccc(C(F)(F)F)c3)n2)cc1` [Compound 3], the remaining activity at 100 µM in test [1] (setting [9]) was 10%. Further, in test [1], the IC50 amounted to 74 µM and the “MurC RA [%]” value worked out at 10%. In test [2], the remaining activity at 100 µM turned out to be 80% and the “MurD RA [%]” value stood at 83%. The “residual activity printed in column IC50 MurD” value in test [2] (Table S2) was determined as 83%. For the same molecule, the “residual activity printed in column IC50 MurE” value in test [3] (Table S2) is reported as 84%. In addition, the “MurE RA [%]” value in test [3] turned out to be 84%. Also, in test [4], the remaining activity at 100 µM came out at 35% and the “MurF RA [%]” value is recorded as 100%. Also, in test [4] (Table S2), the “residual activity printed in column IC50 MurF” value is on record as 100%.

On to `N#Cc1ccc(Oc2nccc(-c3c(-c4ccc(F)cc4)ncn3C3CCNCC3)n2)cc1` [Compound 4], for which, in test [1] (setting [9]), the remaining activity at 100 µM is 48%. Moreover, in test [1], the IC50 worked out at 90 µM and the “MurC RA [%]” value was determined as 48%. In addition, in test [2], the remaining activity at 100 µM came out at 27%, the half-inhibitory concentration (IC50) stood at 63 µM, the “LE (MurD)” value turned out to be 0.17 and the “MurD RA [%]” value is given as 27%. Moreover, in test [3], the IC50 worked out at 139 µM and the “MurE RA [%]” value was 56%. In test [4], the remaining activity at 100 µM was 19%, it took 95 µM to reach half-maximal inhibition (IC50), the “LE (MurF)” value is 0.17 and the “MurF RA [%]” value came out at 51%. In addition, in test [5], the “activity at human kinases” value is on record as “no appreciable activity”.

For `CCCN1CCCC(c2ccc(Nc3nc(Nc4cc(F)ccc4C(N)=O)c4cc[nH]c4n3)c(OC)c2)C1` (stereo not shown) [Compound 5], the remaining activity at 100 µM in test [1] (setting [8]) was found to be 29%. Moreover, in test [1], the IC50 stood at 62 µM and the “MurC RA [%]” value is listed as 29%. In test [2], the remaining activity at 100 µM was found to be 10%, the 50% inhibitory concentration (IC50) came out at 32 µM, the “LE (MurD)” value is reported as 0.16 and the “MurD RA [%]” value was determined as 10%. In addition, in test [3], the half-inhibitory concentration (IC50) stood at 58 µM and the “MurE RA [%]” value is 26%. In addition, in test [4], the remaining activity at 100 µM was 16%, the IC50 stood at 66 µM, the “LE (MurF)” value amounted to 0.15 and the “MurF RA [%]” value is 16%. The “activity at human kinases” value in test [5] is on record as “appreciable activity”.

Usually MIC stands for the lowest concentration that inhibits growth of the organism. A higher MIC goes with a less susceptible organism. Regarding `CN(C)[C@@H]1C(O)=C(C(N)=O)C(=O)[C@@]2(O)C(O)=C3C(=O)c4c(O)cccc4[C@@](C)(O)[C@H]3C[C@@H]12` [Tetracycline], the MIC in test [6] came out at 1 µg/mL (≈ 2.25 µM); in test [7], 0.5 µg/mL (≈ 1.13 µM).

The values are drawn from publication PMC6522912, “Evaluation of the published kinase inhibitor set to identify multiple inhibitors of bacterial ATP-dependent mur ligases” (Journal of Enzyme Inhibition and Medicinal Chemistry, 2019).
